Assay results from patent publication US7880007B2, “Bicyclic substituted phenyl piperidine modulators of muscarinic receptors” (Vertex Pharmaceuticals Incorporated, priority 2004, dated 2011).

Legend:
Format in all cases: cell-based
[1] = molecular target: T1, M4 muscarinic receptor (Homo sapiens, UniProt P08173); assay: Functional mobilization of intracellular calcium (FLIPR), M4-CHO cells; settings: for Emax: 100% efficacy = maximum response obtained with the Carbachol control; for M4 Activity: M4-CHO cells, calcium mobilization (FLIPR)
T1 construct: expressed in transfected cells; host or cells: CHO (M4-CHO)
T1 sequence (P08173 1-479): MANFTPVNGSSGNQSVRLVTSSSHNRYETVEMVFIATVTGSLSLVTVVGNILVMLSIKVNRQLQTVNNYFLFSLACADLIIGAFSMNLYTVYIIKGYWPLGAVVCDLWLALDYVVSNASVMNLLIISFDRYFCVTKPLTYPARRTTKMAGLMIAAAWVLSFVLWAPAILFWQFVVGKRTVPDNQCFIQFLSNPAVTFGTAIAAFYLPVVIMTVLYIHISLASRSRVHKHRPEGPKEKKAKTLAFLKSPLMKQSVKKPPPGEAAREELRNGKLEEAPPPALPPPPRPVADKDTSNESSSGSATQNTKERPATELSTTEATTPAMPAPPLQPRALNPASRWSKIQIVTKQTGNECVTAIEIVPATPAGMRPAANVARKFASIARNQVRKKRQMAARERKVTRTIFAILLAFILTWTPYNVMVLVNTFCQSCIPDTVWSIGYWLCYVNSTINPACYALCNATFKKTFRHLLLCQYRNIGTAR
Procedure: (§1) Functional Mobilization of Intracellular Calcium to Determine Muscarinic Receptor Activity:
(§2) CHO cells expressing muscarinic receptors (M1 to M5) are grown as monolayers in tissue culture flasks at 37° C. in a humidified atmosphere containing 5% CO2 and passaged every 3-5 days. The growth media is Dulbecco's modified eagles medium (DMEM, Gibco Cat #12430-054), containing 25 mM Hepes and supplemented with Fetal Bovine Serum (Hyclone, cat #SH30071.03), 0.1 mM of MEM non-essential amino acids (GIBCO, Cat #11140-050), 1 mM MEM Sodium Pyruvate (GIBCO Cat #11360-070) and 100 units/ml of Penicillin G and 100 μg/ml of Streptomycin (GIBCO Cat #15140-122). The recombinant muscarinic receptor cell lines are grown under antibiotic pressure with media containing 25 μg/ml zeocin and 500 μg/ml G418 (M1-CHO), 4 μg/ml puromycin, 50 μg/ml zeocin and 2.5 μg/ml blasticidin (M2 and M4-CHO) or 50 μg/ml zeocin and 4 μg/ml puromycin (M3 and M5-CHO).
(§3) Cells are harvested at 80-90% confluence using Versene (GIBCO Cat #15040-066), collected by centrifugation and seeded 18-24 hrs prior to running the calcium assay at a density of 5,000-10,000 cells/well in […], clear-bottomed 384-well plates (BD Biocoat, poly-D-lysine, Cat #356663). The day of the experiment, the cells are washed with a plate washer (Bioteck Instruments, ELX 405) using bath 1 buffer (140-mM NaCl, 4.5-mM KCl, 2-mM CaCl2, 1-mM MgCl2, 10-mM Hepes-Na, 10-mM Glucose, pH 7.4, with NaOH) containing 1 mM Probenecid. Next, the calcium dye Fluo-3 (25 μl/well of Fluo-3 AM at 4 μM, Molecular Probes F-1241, in Bath 1 buffer containing 1 mM Probenecid) is added to the 25 μl of Bath 1 remaining in each well after the plate wash and the dye is loaded at 37° C. in the tissue culture incubator for 60-90 min. The fluorescent dye is removed using the plate washer with Bath 1 containing 1 mM Probenecid, leaving 25 μl/well of this solution after the wash. Alternatively, cells can be loaded with the calcium indicator from Molecular Devices (Calcium 3 Assay Reagents, Cat #R7181) adding 5 μl of a 5× solution dye in Bath 1 containing 1 mM Probenecid (10 ml per dye flask cat #R7182 to generate a solution 20×) to 20 μl of the same buffer. After loading for 60 min, the experiment can be run without having to remove the dye.
(§4) Compounds are prepared at a 2× fold concentration in a 96-well plate (round bottom, Costar Corning cat #3656), by reconstituting the pre-spotted compounds in bath 1 containing 1 mM probenecid. The final concentration DMSO is 0.5%, and the amount of DMSO is normalized across the assay plate. To determine an agonist action of the compounds on muscarinic receptors, the reconstituted compounds are added (25 μl compound/well) to the cell assay plate (containing 25 μl/well) using the multi-channel robotic system of the FLIPR 3 Instrument (Molecular Devices, Sunnyvale, Calif.). To determine a functional inhibitory action of the compounds on muscarinic receptors, the reconstituted compounds are added (25 μl compound/well) to the assay plate and pre-incubated for 15 min prior to adding 25 μl of Carbachol at 3× the EC80 for each muscarinic subtype. Alternatively, the compounds can be co-applied simultaneously with the agonist. In both assay modes, the fluorescence is recorded for 60 sec (excitation wavelength is […] and emission wavelength 540 nm) using the FLIPR 3 instrument.
(§5) The potency, efficacy and selectivity of the muscarinic compounds were evaluated by screening the compound activity across the whole family (M1 to M5 cells). Compounds were also screened for activity on other proteins such as other GPCRs and ion channels to determine selectivity on M4 receptors.
(§6) Examples of activities and efficacies of the muscarinic compounds of formulae (I, Ia, Ib, and II) on modulating M1, M2, M3 and M4 receptors are shown below in Table 3. […]

[2] = molecular target: T2, M1 muscarinic receptor (Homo sapiens, UniProt P11229); assay: Functional mobilization of intracellular calcium (FLIPR), M1-CHO cells; settings: for Emax: 100% efficacy = maximum response obtained with the Carbachol control; for M1 Activity: M1-CHO cells, calcium mobilization (FLIPR)
T2 construct: expressed in transfected cells; host or cells: CHO (M1-CHO)
T2 sequence (P11229 1-460): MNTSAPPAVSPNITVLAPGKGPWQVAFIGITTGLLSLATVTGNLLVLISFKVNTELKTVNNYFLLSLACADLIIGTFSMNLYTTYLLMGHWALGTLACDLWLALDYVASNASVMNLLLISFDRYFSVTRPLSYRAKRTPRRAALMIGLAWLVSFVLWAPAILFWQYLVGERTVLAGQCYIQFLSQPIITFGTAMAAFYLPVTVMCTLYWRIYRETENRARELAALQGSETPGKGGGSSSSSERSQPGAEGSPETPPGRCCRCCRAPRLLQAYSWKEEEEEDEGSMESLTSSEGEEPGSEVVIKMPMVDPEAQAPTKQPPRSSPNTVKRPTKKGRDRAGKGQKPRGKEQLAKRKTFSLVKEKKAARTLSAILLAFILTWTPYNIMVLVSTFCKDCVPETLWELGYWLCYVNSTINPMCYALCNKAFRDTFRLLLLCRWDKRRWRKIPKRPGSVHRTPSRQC
Procedure: as §1, §2, §3, §4, §5, §6

[3] = molecular target: T3, M2 muscarinic receptor (Homo sapiens, UniProt P08172); assay: Functional mobilization of intracellular calcium (FLIPR), M2-CHO cells; settings: for Emax: 100% efficacy = maximum response obtained with the Carbachol control; for M2 Activity: M2-CHO cells, calcium mobilization (FLIPR)
T3 construct: expressed in transfected cells; host or cells: CHO (M2-CHO)
T3 sequence (P08172 1-466): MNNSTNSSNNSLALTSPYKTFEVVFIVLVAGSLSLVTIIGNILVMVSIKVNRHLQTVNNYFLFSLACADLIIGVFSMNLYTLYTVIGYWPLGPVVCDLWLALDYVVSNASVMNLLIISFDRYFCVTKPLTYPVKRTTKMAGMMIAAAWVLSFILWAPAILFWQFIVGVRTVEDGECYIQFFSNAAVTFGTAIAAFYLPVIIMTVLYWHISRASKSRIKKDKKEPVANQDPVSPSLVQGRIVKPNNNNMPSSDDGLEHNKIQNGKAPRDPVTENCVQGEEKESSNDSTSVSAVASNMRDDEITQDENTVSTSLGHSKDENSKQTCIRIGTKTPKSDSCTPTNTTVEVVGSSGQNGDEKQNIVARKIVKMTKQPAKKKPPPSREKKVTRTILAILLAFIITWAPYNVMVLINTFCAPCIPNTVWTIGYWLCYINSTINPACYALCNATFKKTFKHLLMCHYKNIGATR
Procedure: as §1, §2, §3, §4, §5, §6

Structure (SMILES)	Emax [1]	M4 Activity [1]	Emax [2]	M1 Activity [2]	Emax [3]	M2 Activity [3]
COc1ccc(Cl)cc1C1(O)CCN(C2CCC3CCC2C3)CC1 (stereo not drawn) [Compound 228]	25 to 100%	++ (activity was measured to be from 1.0 μM to 5.0 μM)	< 25%	+ (activity was measured to be greater than 5.0 μM)	< 25%	+ (activity was measured to be greater than 5.0 μM)
COc1ccccc1C1(C#N)CCN(C2CCC3CCC2C3)CC1 (stereo not drawn) [Compound 240]	25 to 100%	+++ (activity was measured to be less than 1.0 μM)	25 to 100%	++ (activity was measured to be from 1.0 μM to 5.0 μM)	25 to 100%	++ (activity was measured to be from 1.0 μM to 5.0 μM)
COc1ccc(C2CCN(C3C[C@H]4CC[C@H](C3)C4)CC2)c(C)c1 (stereo partly drawn) [Compound 244]	< 25%	+ (activity was measured to be greater than 5.0 μM)	< 25%	+ (activity was measured to be greater than 5.0 μM)	< 25%	+ (activity was measured to be greater than 5.0 μM)
CCOC(=O)N1CCC(N2CCC(C#N)(c3ccccc3OC)CC2)CC1 [Compound 245, ethyl 4-cyano-4-(2-methoxyphenyl)-1,4′-bipiperidine-1′-carboxylate]	25 to 100%	+++ (activity was measured to be less than 1.0 μM)	25 to 100%	+++ (activity was measured to be less than 1.0 μM)	< 25%	+ (activity was measured to be greater than 5.0 μM)
COc1ccccc1C1(C#N)CCN(C2CCCCCC2)CC1 [Compound 279]	25 to 100%	++ (activity was measured to be from 1.0 μM to 5.0 μM)	< 25%	++ (activity was measured to be from 1.0 μM to 5.0 μM)	< 25%	+ (activity was measured to be greater than 5.0 μM)
COc1ccc(Cl)cc1C1(OC)CCN(C[C@@H]2C[C@H]3C=C[C@H]2C3)CC1 [Compound 286]	25 to 100%	+++ (activity was measured to be less than 1.0 μM)	25 to 100%	+ (activity was measured to be greater than 5.0 μM)	< 25%	+ (activity was measured to be greater than 5.0 μM)
COc1ccc(Cl)cc1C1(OC)CCN(C2CC3CCC(C3)C2)CC1 (stereo not drawn) [Compound 288]	25 to 100%	+++ (activity was measured to be less than 1.0 μM)	25 to 100%	++ (activity was measured to be from 1.0 μM to 5.0 μM)	< 25%	+ (activity was measured to be greater than 5.0 μM)
CCCC1CCC(N2CCC(c3cc(Cl)ccc3OC)CC2)CC1 (stereo not drawn) [Compound 293]	25 to 100%	++ (activity was measured to be from 1.0 μM to 5.0 μM)	25 to 100%	++ (activity was measured to be from 1.0 μM to 5.0 μM)	25 to 100%	++ (activity was measured to be from 1.0 μM to 5.0 μM)
COc1ccc(Cl)cc1C1(O)CCN(C2CCOCC2)CC1 [Compound 304]	25 to 100%	+ (activity was measured to be greater than 5.0 μM)	< 25%	+ (activity was measured to be greater than 5.0 μM)	< 25%	+ (activity was measured to be greater than 5.0 μM)
COc1ccc(Cl)cc1C1(OC)CCN(C2CC3CCC2C3)CC1 (stereo not drawn) [Compound 308]	25 to 100%	++ (activity was measured to be from 1.0 μM to 5.0 μM)	< 25%	+ (activity was measured to be greater than 5.0 μM)	< 25%	+ (activity was measured to be greater than 5.0 μM)
COc1ccccc1C1CCN(C2CC3CCC2O3)CC1 (stereo not drawn) [Compound 312]	< 25%	+ (activity was measured to be greater than 5.0 μM)	< 25%	+ (activity was measured to be greater than 5.0 μM)	< 25%	+ (activity was measured to be greater than 5.0 μM)
Cc1ccc(Cl)cc1C1CCN(CC2C[C@H]3CC[C@H]2C3)CC1 (stereo partly drawn) [Compound 315]	25 to 100%	+++ (activity was measured to be less than 1.0 μM)	25 to 100%	+ (activity was measured to be greater than 5.0 μM)	25 to 100%	+ (activity was measured to be greater than 5.0 μM)
CCCC1CCC(N2CCC(OC)(c3cc(Cl)ccc3OC)CC2)CC1 (stereo not drawn) [Compound 316]	25 to 100%	++ (activity was measured to be from 1.0 μM to 5.0 μM)	25 to 100%	++ (activity was measured to be from 1.0 μM to 5.0 μM)	< 25%	+ (activity was measured to be greater than 5.0 μM)
